Measured values from patent US20240299317A1, “Fenfluramine for Treatment of Conditions Associated with Spreading Depolarization” (ZOGENIX INTERNATIONAL LIMITED, priority 2021, published 2024).

Experiments:
[1] = test system: spreading depolarization in mouse brain slices; assay: KCl-induced spreading depolarization threshold in mouse brain slices; format: cell-based; conditions: for KCl concentration necessary to initiate spreading depolarization (SD threshold): test compound alone in ACSF bath
Method: (§1) In brain slice studies normoxic SD is induced by briefly raising [K^+]o. An ischemic version of SD, the anoxic depolarization (AD), is induced by removing O2/glucose from the aCSF for about 10 min. Intrinsic optical signals (IOSs) represent change in the way tissue scatters light. Light transmittance (LT), essentially unscattered light, is imaged using a charge-coupled device (CCD) to measure second-by-second regional DLT during periods of 1 h or more. The front of the propagating SD or AD event is imaged as an elevated LT, caused by cell swelling. A negative voltage shift, the electrophysiological signature of SD, is simultaneously recorded extracellularly. Normoxic SD is typically the cortical occurrence in migraine, while an anoxic condition is more typical of ischemic attacks and stroke.
(§2) To determine the threshold for evoked spreading depolarization in mouse brain slices, mice (C57Bl6J, P30-50) were deeply anesthetized by ketamine/xylazine mix (i.p. 85 and […], respectively), cardiac perfused with cutting solution (110 mM N-Methyl-D-glucamine, 10 mM glucose, 6 mM magnesium sulfate, 3 mM KCl, 25 mM sodium bicarbonate, 1.25 mM sodium monophosphate, 0.2 mM calcium chloride, and 0.4 mM ascorbic acid equilibrated with 95% O2/5% CO2), and decapitated. The brain was rapidly extracted, cerebellum removed, forebrain hemisected, and 300 μm thick coronal slices were cut on a vibratome.
Slices were first incubated in the cutting solution at 37 C for 10 minutes and then transferred to artificial cerebrospinal fluid (“ACSF”: 126 mM sodium chloride, 10 mM glucose, 1 mM magnesium sulfate, 3 mM KCl, 25 mM sodium bicarbonate, 1.25 mM sodium monophosphate, 2 mM calcium chloride, and 0.4 mM ascorbic acid equilibrated with 95% O2/5% CO2).
(§3) In all in vitro experiments, a pair of slices were then transferred to a recording chamber continuously superfused with ACSF at […] 33-34° C. For pharmacological analysis, slices were pre-incubated in the recording chamber with test compound for at least for 20 minutes. Slow tissue depolarizations (SD) were detected by DC potential shift or imaging of intrinsic optical signals (IOS) in the brain slice. DC potential were recorded using glass pipette electrodes containing ACSF (2-3MO). Signals were amplified with a DC amplifier (MultiClamp 700B), digitized (Digidata 1550B) and analyzed with the Clampfit program ([…]). IOS were detected by acquiring images of brain slices with a CMOS camera (Hamamatsu ORCA). Images were acquired at 0.2-0.5 Hz and analyzed with imageJ software.
First, by incrementally elevating the KCl concentration of bath ACSF every 5 minutes (initial starting concentration of 6 mM, then elevated by +1 mM at 5-minute intervals). The KCl concentration that triggered the first SD was considered as the SD threshold. In experiments using the test drug (fenfluramine), the drug was added to the solution before the KCl challenge.

[2] = test system: GABA spontaneous inhibitory postsynaptic currents; assay: GABA spontaneous inhibitory postsynaptic currents (sIPSCs); format: cell-based; conditions: compound alone
[3] = molecular target: Sig1 receptor [Sig1R]/binding immunoglobulin protein (BiP) (Homo sapiens, UniProt Q99720); conditions: with PRE-084; cited from earlier work
[4] = test system: Sig1R; conditions: with (+)-SKF-10,047; cited from earlier work
[5] = test system: spreading depolarization in cortical slices; assay: Oxygen/glucose deprivation (OGD) model of spreading depolarization in brain slices; format: cell-based, mouse; conditions: for time to onset of spreading depolarization: treatment vs non-treatment
Method: as §1
as §2, with “vibratome. […]” for “vibratome.”
as §3, with “For pharmacological analysis, slices were pre-incubated in the recording chamber with test compound for at least for 20 minutes.” left out, “software. […]” for “software.”

[6] = cited from earlier work

Chain of Sig1 receptor [Sig1R]/binding immunoglobulin protein (BiP) (Q99720 whole entry): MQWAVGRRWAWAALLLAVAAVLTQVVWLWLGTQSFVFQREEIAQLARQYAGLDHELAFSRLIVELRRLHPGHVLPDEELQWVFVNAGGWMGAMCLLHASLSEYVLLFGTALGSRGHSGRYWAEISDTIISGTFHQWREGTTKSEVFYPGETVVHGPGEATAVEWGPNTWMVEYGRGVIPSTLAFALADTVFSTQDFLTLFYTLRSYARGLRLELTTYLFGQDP

In the case of `CN1CC2c3ccccc3Oc3ccc(Cl)cc3C2C1` (stereo not drawn) [asenapine], the “effect of multi-5-HT receptor antagonist on protective effects of fenfluramine” value ([1]; KCl model, asenapine added to fenfluramine) is reported as “did not affect”.

In the case of `COc1ccc2c(c1)[C@]13CCCC[C@@H]1[C@H](C2)N(C)CC3` [dextromethorphan], the “KCl concentration necessary to initiate spreading depolarization (SD threshold)” value ([1]; KCl model) is reported as “raising the spreading depolarization threshold”.

With `CCNC(C)Cc1cccc(C(F)(F)F)c1` (stereo not drawn) [fenfluramine, 3-trifluoromethyl-N-ethylamphetamine] the “protective effect of fenfluramine with addition of a 5-HT4 antagonist” value ([1]; KCl model, 5-HT4 antagonist added) was “only slightly diminished”, the “KCl concentration necessary to initiate spreading depolarization (SD threshold)” value ([1]; KCl model) was “raising the KCl concentration necessary to initiate spreading depolarization” and the “additivity or synergism on spreading depolarization threshold” value ([1]; fenfluramine with added serotonin) was “lack of additivity or synergism”. The “fenfluramine's effects on spreading depolarization under blockade of the GABA receptors” value ([1]; with blockade of the GABA receptors) was “does not abolish”, the “GABA spontaneous inhibitory postsynaptic currents” value [2] was “increase” and the “Sig1R/BiP dissociation induced by the Sig1R agonist PRE-084” value [3] was “potentiated”. For the same molecule, the “(+)-SKF-10,047-induced increase in the twitch contraction amplitude” value [4] was “potentiated”, the “time to onset of spreading depolarization” value ([5]; 0% oxygen and 0 mM glucose) was “non-significant difference” and the “time to onset of spreading depolarization” value ([5]; 0% oxygen and 2 mM glucose) was “significant increase in time to onset”. For the same molecule, the “effect on SD under anoxic conditions (AD)” value ([5]; anoxic conditions) was “positive effect”, the “cardiac adverse effects with chronic use” value ([6]; chronic use at doses of 60 to 120 mg, some patients) was “cardiac valve abnormalities or pulmonary hypertension” and the anticonvulsant/antiseizure activity ([6]; low dose, Dravet Syndrome and Lennox Gastaut syndrome) was “anticonvulsant/antiseizure activity”.

In the case of `NCCc1c[nH]c2ccc(O)cc12` [serotonin, 5-hydroxytryptamine], the “GABA spontaneous inhibitory postsynaptic currents” value [2] is reported as “increase”.
